Each structure is given as a SMILES string.

The subject of the first test is A549. In words: In vitro rate of inhibition of A-549 tumor cell growth at 10E-6 mol/L. The format is functional, Homo sapiens. As to conditions: at 1 µM.
In the case of `Clc1ccc(Cc2nnc(Cc3ccc(Cl)cc3)nn2)cc1`, the Rate of inhibition was 13.1%.

`CCCC1=NN(C(=O)Nc2cccc(C)c2)C(CCC)=NN1C(=O)Nc1cccc(C)c1` had a Rate of inhibition of 74.1%.

`CC1=NN(C(=O)OCCC(C)C)C(C)N=N1` (stereo not given): the Rate of inhibition was found to be 0%.

`CCOC(=O)c1cccc(NC(=O)N2N=C(C)N(C(=O)Nc3cccc(C(=O)OCC)c3)N=C2C)c1` registered a Rate of inhibition of 6.8%.

For the molecule `Clc1ccc(-c2nnc(-c3ccc(Cl)cc3)nn2)cc1`, the Rate of inhibition is listed as 0%.

The molecule `CCOC(=O)N1C(c2ccccc2)=NN=C(c2ccccc2)N1C(=O)OCC` yielded a Rate of inhibition of 0%.

`CCCCCOC(=O)N1N=C(CCC)N=NC1CCC` (stereo not given) displayed a Rate of inhibition of 2.3%.

The next test deals with P388. Nature of the test: In vitro rate of inhibition of P388 tumor cell growth at 10E-8 mol/L. As to conditions: at 0.01 µM. In kind it is functional, Mus musculus.
Molecule `Clc1ccc(Cc2nnc(Cc3ccc(Cl)cc3)nn2)cc1` gave a Rate of inhibition of 0%.

`CCCC1=NN(C(=O)Nc2cccc(C)c2)C(CCC)=NN1C(=O)Nc1cccc(C)c1` displayed a Rate of inhibition of 0%.

In the case of `CC1=NN(C(=O)OCCC(C)C)C(C)N=N1` (stereo not given), the Rate of inhibition was 0%.

On to `CCOC(=O)c1cccc(NC(=O)N2N=C(C)N(C(=O)Nc3cccc(C(=O)OCC)c3)N=C2C)c1`, for which the Rate of inhibition is 0%.

The molecule `Clc1ccc(-c2nnc(-c3ccc(Cl)cc3)nn2)cc1` came in with a Rate of inhibition of 16.1%.

`CCOC(=O)N1C(c2ccccc2)=NN=C(c2ccccc2)N1C(=O)OCC` showed a Rate of inhibition of 2.8%.

In the case of `CCCCCOC(=O)N1N=C(CCC)N=NC1CCC` (stereo not given), the Rate of inhibition is 0%.

The test system of the next test is A549. Nature of the test: In vitro rate of inhibition of A-549 tumor cell growth at 10E-4 mol/L. The format is functional, Homo sapiens. As to conditions: at 100 µM.
As for `Clc1ccc(Cc2nnc(Cc3ccc(Cl)cc3)nn2)cc1`, the Rate of inhibition was found to be 65.8%.

Molecule `CCCC1=NN(C(=O)Nc2cccc(C)c2)C(CCC)=NN1C(=O)Nc1cccc(C)c1` had a Rate of inhibition of 93.3%.

Molecule `CC1=NN(C(=O)OCCC(C)C)C(C)N=N1` (stereo not given) showed a Rate of inhibition of 0%.

As for `CCOC(=O)c1cccc(NC(=O)N2N=C(C)N(C(=O)Nc3cccc(C(=O)OCC)c3)N=C2C)c1`, the Rate of inhibition came to 67%.

For `Clc1ccc(-c2nnc(-c3ccc(Cl)cc3)nn2)cc1`, the Rate of inhibition was 0%.

On to `CCOC(=O)N1C(c2ccccc2)=NN=C(c2ccccc2)N1C(=O)OCC`, for which the Rate of inhibition stood at 95.3%.

As to `CCCCCOC(=O)N1N=C(CCC)N=NC1CCC` (stereo not given), the Rate of inhibition is on record as 0%.

The subject of a further test is A549. Nature of the test: In vitro rate of inhibition of A-549 tumor cell growth at 10E-5 mol/L. The format is functional, Homo sapiens. As to conditions: at 10 µM.
Regarding `Clc1ccc(Cc2nnc(Cc3ccc(Cl)cc3)nn2)cc1`, the Rate of inhibition stood at 57.1%.

Molecule `CCCC1=NN(C(=O)Nc2cccc(C)c2)C(CCC)=NN1C(=O)Nc1cccc(C)c1` registered a Rate of inhibition of 84.2%.

For the molecule `CC1=NN(C(=O)OCCC(C)C)C(C)N=N1` (stereo not given), the Rate of inhibition turned out to be 0%.

As to `CCOC(=O)c1cccc(NC(=O)N2N=C(C)N(C(=O)Nc3cccc(C(=O)OCC)c3)N=C2C)c1`, the Rate of inhibition turned out to be 12.5%.

Turning to `Clc1ccc(-c2nnc(-c3ccc(Cl)cc3)nn2)cc1`, the Rate of inhibition stood at 0%.

Consider `CCOC(=O)N1C(c2ccccc2)=NN=C(c2ccccc2)N1C(=O)OCC`, for which the Rate of inhibition came to 10.8%.

Take `CCCCCOC(=O)N1N=C(CCC)N=NC1CCC` (stereo not given): the Rate of inhibition is 0.7%.

Another test deals with P388. Nature of the test: In vitro rate of inhibition of P388 tumor cell growth at 10E-6 mol/L. The format is functional, Mus musculus. As to conditions: at 1 µM.
`Clc1ccc(Cc2nnc(Cc3ccc(Cl)cc3)nn2)cc1` came in with a Rate of inhibition of 9.3%.

As to `CCCC1=NN(C(=O)Nc2cccc(C)c2)C(CCC)=NN1C(=O)Nc1cccc(C)c1`, the Rate of inhibition stood at 0%.

Molecule `CC1=NN(C(=O)OCCC(C)C)C(C)N=N1` (stereo not given) yielded a Rate of inhibition of 13.6%.

In turn, `CCOC(=O)c1cccc(NC(=O)N2N=C(C)N(C(=O)Nc3cccc(C(=O)OCC)c3)N=C2C)c1` displayed a Rate of inhibition of 0%.

In turn, `Clc1ccc(-c2nnc(-c3ccc(Cl)cc3)nn2)cc1` came in with a Rate of inhibition of 29%.

As for `CCOC(=O)N1C(c2ccccc2)=NN=C(c2ccccc2)N1C(=O)OCC`, the Rate of inhibition was found to be 7%.

In the case of `CCCCCOC(=O)N1N=C(CCC)N=NC1CCC` (stereo not given), the Rate of inhibition stood at 5.6%.

In the next test the test system is P388. Nature of the test: In vitro rate of inhibition of P388 tumor cell growth at 10E-7 mol/L. The format is functional, Mus musculus. As to conditions: at 0.1 µM.
In turn, `Clc1ccc(Cc2nnc(Cc3ccc(Cl)cc3)nn2)cc1` returned a Rate of inhibition of 8.9%.

Regarding `CCCC1=NN(C(=O)Nc2cccc(C)c2)C(CCC)=NN1C(=O)Nc1cccc(C)c1`, the Rate of inhibition amounted to 4.8%.

In turn, `CC1=NN(C(=O)OCCC(C)C)C(C)N=N1` (stereo not given) returned a Rate of inhibition of 0.8%.

Regarding `CCOC(=O)c1cccc(NC(=O)N2N=C(C)N(C(=O)Nc3cccc(C(=O)OCC)c3)N=C2C)c1`, the Rate of inhibition came to 0%.

`Clc1ccc(-c2nnc(-c3ccc(Cl)cc3)nn2)cc1`: the Rate of inhibition came out at 19.4%.

`CCOC(=O)N1C(c2ccccc2)=NN=C(c2ccccc2)N1C(=O)OCC` registered a Rate of inhibition of 4.9%.

In the case of `CCCCCOC(=O)N1N=C(CCC)N=NC1CCC` (stereo not given), the Rate of inhibition is listed as 0%.

A further test deals with A549. Nature of the test: In vitro rate of inhibition of A-549 tumor cell growth at 10E-8 mol/L. In kind it is functional, Homo sapiens. As to conditions: at 0.01 µM.
`Clc1ccc(Cc2nnc(Cc3ccc(Cl)cc3)nn2)cc1` displayed a Rate of inhibition of 8.7%.

Regarding `CCCC1=NN(C(=O)Nc2cccc(C)c2)C(CCC)=NN1C(=O)Nc1cccc(C)c1`, the Rate of inhibition is reported as 0%.

`CC1=NN(C(=O)OCCC(C)C)C(C)N=N1` (stereo not given) yielded a Rate of inhibition of 0%.

`CCOC(=O)c1cccc(NC(=O)N2N=C(C)N(C(=O)Nc3cccc(C(=O)OCC)c3)N=C2C)c1` displayed a Rate of inhibition of 1.1%.

In the case of `Clc1ccc(-c2nnc(-c3ccc(Cl)cc3)nn2)cc1`, the Rate of inhibition amounted to 0%.

In the case of `CCOC(=O)N1C(c2ccccc2)=NN=C(c2ccccc2)N1C(=O)OCC`, the Rate of inhibition is listed as 0%.

Consider `CCCCCOC(=O)N1N=C(CCC)N=NC1CCC` (stereo not given), for which the Rate of inhibition worked out at 2.5%.

Another test has as its system A549. Nature of the test: In vitro rate of inhibition of A-549 tumor cell growth at 10E-7 mol/L. The format is functional, Homo sapiens. As to conditions: at 0.1 µM.
`Clc1ccc(Cc2nnc(Cc3ccc(Cl)cc3)nn2)cc1`: the Rate of inhibition amounted to 1.1%.

`CCCC1=NN(C(=O)Nc2cccc(C)c2)C(CCC)=NN1C(=O)Nc1cccc(C)c1` gave a Rate of inhibition of 4%.

The molecule `CC1=NN(C(=O)OCCC(C)C)C(C)N=N1` (stereo not given) came in with a Rate of inhibition of 0%.

With `CCOC(=O)c1cccc(NC(=O)N2N=C(C)N(C(=O)Nc3cccc(C(=O)OCC)c3)N=C2C)c1`, the Rate of inhibition worked out at 5.7%.

`Clc1ccc(-c2nnc(-c3ccc(Cl)cc3)nn2)cc1` displayed a Rate of inhibition of 0%.

`CCOC(=O)N1C(c2ccccc2)=NN=C(c2ccccc2)N1C(=O)OCC` had a Rate of inhibition of 0%.

Take `CCCCCOC(=O)N1N=C(CCC)N=NC1CCC` (stereo not given): the Rate of inhibition was 0%.

Another test deals with P388. Nature of the test: In vitro rate of inhibition of P388 tumor cell growth at 10E-4 mol/L. The format is functional, Mus musculus. As to conditions: at 100 µM.
As to `Clc1ccc(Cc2nnc(Cc3ccc(Cl)cc3)nn2)cc1`, the Rate of inhibition is recorded as 58.4%.

Molecule `CCCC1=NN(C(=O)Nc2cccc(C)c2)C(CCC)=NN1C(=O)Nc1cccc(C)c1` gave a Rate of inhibition of 81.6%.

`CC1=NN(C(=O)OCCC(C)C)C(C)N=N1` (stereo not given) showed a Rate of inhibition of 28.8%.

Molecule `CCOC(=O)c1cccc(NC(=O)N2N=C(C)N(C(=O)Nc3cccc(C(=O)OCC)c3)N=C2C)c1` registered a Rate of inhibition of 46.3%.

As for `Clc1ccc(-c2nnc(-c3ccc(Cl)cc3)nn2)cc1`, the Rate of inhibition came to 52.3%.

On to `CCOC(=O)N1C(c2ccccc2)=NN=C(c2ccccc2)N1C(=O)OCC`, for which the Rate of inhibition came to 93.9%.

In turn, `CCCCCOC(=O)N1N=C(CCC)N=NC1CCC` (stereo not given) showed a Rate of inhibition of 32.8%.

Another test concerns P388. Nature of the test: In vitro rate of inhibition of P388 tumor cell growth at 10E-5 mol/L. In kind it is functional, Mus musculus. As to conditions: at 10 µM.
`Clc1ccc(Cc2nnc(Cc3ccc(Cl)cc3)nn2)cc1` came in with a Rate of inhibition of 29.1%.

Regarding `CCCC1=NN(C(=O)Nc2cccc(C)c2)C(CCC)=NN1C(=O)Nc1cccc(C)c1`, the Rate of inhibition was found to be 63.9%.

In turn, `CC1=NN(C(=O)OCCC(C)C)C(C)N=N1` (stereo not given) showed a Rate of inhibition of 17.8%.

In turn, `CCOC(=O)c1cccc(NC(=O)N2N=C(C)N(C(=O)Nc3cccc(C(=O)OCC)c3)N=C2C)c1` showed a Rate of inhibition of 0%.

For the molecule `Clc1ccc(-c2nnc(-c3ccc(Cl)cc3)nn2)cc1`, the Rate of inhibition is 35.1%.

For `CCOC(=O)N1C(c2ccccc2)=NN=C(c2ccccc2)N1C(=O)OCC`, the Rate of inhibition was determined as 35.6%.

`CCCCCOC(=O)N1N=C(CCC)N=NC1CCC` (stereo not given) displayed a Rate of inhibition of 7.7%.

For the origin of these results see ChEMBL document CHEMBL1147590, “Synthesis and antitumor activity of s-tetrazine derivatives” (Bioorg Med Chem Lett, 2004).
